Reference: patent US9890166B2, “Imidazopyrrolidine derivatives and their use in the treatment of disease” (NOVARTIS AG, priority 2013, dated 2018)

Legend:
BRD4 (His-Brd4(44-477)) = BRD4 (His-Brd4(44-477)) (Homo sapiens (Human), UniProt O60885); experiment: TR-FRET in-vitro binding assay for BRD4; conditions: single determination or n ≧ 2 independent determinations, read-out: Biochemical IC50 BRD4
How it was run: (§1)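 In this TR-FRET format, each compound was tested as an 8-point dilution series, single point per concentration, dispensed from 90% DMSO solution. Incubation lasted 35 minutes at 30° C.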

BRD2 (His-Brd2(60-472)) = BRD2 (His-Brd2(60-472)) (Homo sapiens (Human), UniProt P25440); experiment: TR-FRET in-vitro binding assay for BRD2; conditions: single determination or n ≧ 2 independent determinations, read-out: Biochemical IC50 BRD2
How it was run: as §1

BRD3 (His-Brd3(20-477)) = BRD3 (His-Brd3(20-477)) (Homo sapiens (Human), UniProt Q15059); experiment: TR-FRET in-vitro binding assay for BRD3; conditions: single determination or n ≧ 2 independent determinations, read-out: Biochemical IC50 BRD3
How it was run: as §1

[1] = molecular target: CREBBP bromodomain (His-CREBBP(1081-1197)) (Homo sapiens (Human), UniProt Q92793); experiment: AlphaScreen in-vitro binding assay for CREBBP; conditions: single determination or n ≧ 2 independent determinations, read-out: Biochemical IC50 CREBBP
How it was run: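 Detection used nickel-chelate acceptor plus streptavidin donor AlphaScreen beads, 1 h room temperature. Percent inhibition fitted by non-linear regression to IC50.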

[2] = molecular target: nuclear BRD4-NUT foci in HCC2494 NUT midline carcinoma cells (Homo sapiens, UniProt O60885); experiment: cell-based
THP-1 cells = experiment: Cell growth inhibition assay (CellTiter-Glo), THP-1; conditions: for GI50: Homo sapiens, THP-1, read-out: THP-1 GI50; for THP-1 TGI: THP-1 cells, total growth inhibition, CellTiter-Glo;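 on all read-outs here: viability read as cellular ATP luminescence after 4 days, 3-fold dilution series from 10 µM, DMSO vehicle-treated cells taken as 100%, cell-free medium wells as −100%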
K-562 cells = experiment: Cell growth inhibition assay (CellTiter-Glo), K-562; conditions: for GI50: Homo sapiens, K562, read-out: K-562 GI50; for K-562 TGI: K-562 cells, total growth inhibition, CellTiter-Glo;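 on all read-outs here: cellular ATP measured by luminescence after 4 days of exposure, 3-fold dilution series from 10 µM, DMSO vehicle-treated cells define 100%, cell-free medium wells −100%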
MV-4-11 cells = experiment: Cell growth inhibition assay (CellTiter-Glo), MV-4-11; conditions: for GI50: Homo sapiens, MV4-11, read-out: MV-4-11 GI50; for MV-4-11 TGI: MV-4-11 cells, total growth inhibition, CellTiter-Glo;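 on all read-outs here: cellular ATP luminescence after 4 days, 3-fold dilution series from 10 µM top dose, vehicle (0.1% DMSO) set to 100%, cell-free medium set to −100%, day 0 corrected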

BRD3 (His-Brd3(20-477)), sequence (Q15059 20-477): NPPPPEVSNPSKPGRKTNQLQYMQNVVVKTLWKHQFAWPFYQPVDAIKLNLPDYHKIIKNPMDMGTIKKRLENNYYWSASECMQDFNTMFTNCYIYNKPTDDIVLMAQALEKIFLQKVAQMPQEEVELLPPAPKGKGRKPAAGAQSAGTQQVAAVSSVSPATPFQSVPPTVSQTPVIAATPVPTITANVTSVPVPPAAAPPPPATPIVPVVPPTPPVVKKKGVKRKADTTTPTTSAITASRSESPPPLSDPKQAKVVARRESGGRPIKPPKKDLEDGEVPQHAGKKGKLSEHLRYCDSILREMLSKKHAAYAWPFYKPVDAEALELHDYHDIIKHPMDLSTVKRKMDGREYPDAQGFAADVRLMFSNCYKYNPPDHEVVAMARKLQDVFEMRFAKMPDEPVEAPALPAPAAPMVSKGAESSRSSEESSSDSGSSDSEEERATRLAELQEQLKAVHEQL
BRD2 (His-Brd2(60-472)), sequence (P25440 60-472): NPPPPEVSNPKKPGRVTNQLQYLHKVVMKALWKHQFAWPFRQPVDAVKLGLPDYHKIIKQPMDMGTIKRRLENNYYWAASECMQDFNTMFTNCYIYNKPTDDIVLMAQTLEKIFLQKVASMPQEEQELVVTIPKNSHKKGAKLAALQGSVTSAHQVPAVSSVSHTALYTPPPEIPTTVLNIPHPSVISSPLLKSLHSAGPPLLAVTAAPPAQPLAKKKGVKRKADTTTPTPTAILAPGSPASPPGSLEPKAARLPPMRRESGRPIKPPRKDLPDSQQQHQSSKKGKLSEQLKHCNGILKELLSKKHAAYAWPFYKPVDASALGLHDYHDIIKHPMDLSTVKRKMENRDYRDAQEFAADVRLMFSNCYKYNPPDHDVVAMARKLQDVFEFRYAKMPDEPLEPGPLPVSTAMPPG
CREBBP bromodomain (His-CREBBP(1081-1197)), sequence (Q92793 1081-1197): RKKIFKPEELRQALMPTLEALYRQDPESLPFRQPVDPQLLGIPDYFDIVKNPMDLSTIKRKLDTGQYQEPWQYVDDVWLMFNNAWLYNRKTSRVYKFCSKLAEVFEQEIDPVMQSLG

SMILES | IC50 (BRD4 (His-Brd4(44-477))) | IC50 (BRD2 (His-Brd2(60-472))) | IC50 (BRD3 (His-Brd3(20-477))) | IC50 [1] | IC50 [2] | GI50 (THP-1 cells) | GI50 (K-562 cells) | GI50 (MV-4-11 cells) | THP-1 TGI (THP-1 cells) | K-562 TGI (K-562 cells) | MV-4-11 TGI (MV-4-11 cells)
Cc1cc(N2C(=O)c3nc(-c4ncco4)n(C(C)C)c3C2c2ccc(Cl)cc2)cn2c(C)nnc12 (centres unmarked) [Example 15, 6-(4-chlorophenyl)-5-(3,8-dimethyl-[1,2,4]triazolo[4,3-a]pyridin-6-yl)-1-isopropyl-2-(oxazol-2-yl)-5,6-dihydropyrrolo[3,4-d]imidazol-4(1H)-one] | 37 nM | 48 nM | 41 nM | 16100 nM | 80 nM | 71.9 nM | 318 nM | 42 nM | 132 nM | >10000 nM | 86.25 nM
COc1ccc(-c2nc3c(n2C)C(c2ccc(Cl)cc2)N(c2cc(C)c4nnc(C)n4c2)C3=O)cn1 (centres unmarked) [Example 16, 6-(4-chlorophenyl)-5-(3,8-dimethyl-[1,2,4]triazolo[4,3-a]pyridin-6-yl)-2-(6-methoxypyridin-3-yl)-1-methyl-5,6-dihydropyrrolo[3,4-d]imidazol-4(1H)-one] | 45 nM | 49 nM | 47 nM | > 24000 nM | 263 nM | 220 nM | 562 nM | 74.3 nM | 370 nM | >10000 nM | 125.5 nM
COc1cc(N2C(=O)c3nc(C4CC4)n(C(C)C)c3C2c2ccc(Cl)cc2)cn2c(C)nnc12 (centres unmarked) [Example 17, 6-(4-chlorophenyl)-2-cyclopropyl-1-isopropyl-5-(8-methoxy-3-methyl-[1,2,4]triazolo[4,3-a]pyridin-6-yl)-5,6-dihydropyrrolo[3,4-d]imidazol-4(1H)-one] | 41 nM | 100 nM | 75 nM | > 37000 nM | 323 nM | 322 nM | 1080 nM | 166 nM | 704.5 nM | >10000 nM | 316.5 nM
CCn1c(-c2ccc(OC)nc2)nc2c1C(=O)N(c1cc(C)c(=O)n(C)c1)C2c1ccc(Cl)cc1 (centres unmarked) [Example 38, 6-(4-chlorophenyl)-5-(1,5-dimethyl-6-oxo-1,6-dihydropyridin-3-yl)-3-ethyl-2-(6-methoxypyridin-3-yl)-5,6-dihydropyrrolo[3,4-d]imidazol-4(3H)-one] | 78 nM | 92.5 nM | 76 nM | 2000 nM | 24.5 nM | 74.9 nM | 271 nM | 30.1 nM | 118 nM | >10000 nM | 48.9 nM
CCn1c(-c2ccc(OC)nc2)nc2c1C(=O)N(c1cc(C)c(=O)n(C)c1)[C@@H]2c1ccc(Cl)cc1 [Example 39, (R)-6-(4-chlorophenyl)-5-(1,5-dimethyl-6-oxo-1,6-dihydropyridin-3-yl)-3-ethyl-2-(6-methoxypyridin-3-yl)-5,6-dihydropyrrolo[3,4-d]imidazol-4(3H)-one] | 28.5 nM | 24 nM | 32 nM | 910 nM | 21.1 nM | 26.2 nM | 72 nM | 11.7 nM | 48.1 nM | >10000 nM | 23.9 nM
CCn1c(-c2ccnn2C)nc2c1C(=O)N(c1cc(C)c(=O)n(C)c1)C2c1ccc(Cl)cc1 (centres unmarked) [Example 42, 6-(4-chlorophenyl)-5-(1,5-dimethyl-6-oxo-1,6-dihydropyridin-3-yl)-3-ethyl-2-(1-methyl-1H-pyrazol-5-yl)-5,6-dihydropyrrolo[3,4-d]imidazol-4(3H)-one] | 69 nM | 65 nM | 61 nM | 3400 nM | 64.2 nM | 74.3 nM | 274 nM | 53.5 nM | 126 nM | >10000 nM | 102.3 nM
Cc1cc(N2C(=O)c3nc(-c4nccs4)n(C4CC4)c3C2c2ccc(Cl)cc2)cn(C)c1=O (centres unmarked) [Example 43, 6-(4-chlorophenyl)-1-cyclopropyl-5-(1,5-dimethyl-6-oxo-1,6-dihydropyridin-3-yl)-2-(thiazol-2-yl)-5,6-dihydropyrrolo[3,4-d]imidazol-4(1H)-one] | 64 nM | 59.5 nM | 55 nM | 32300 nM | 52.9 nM | 90.5 nM | 356 nM | 66.2 nM | 162.5 nM | >10000 nM | 99.55 nM
Cc1cc(N2C(=O)c3[nH]c(C4CC4)nc3C2c2ccc(Cl)cc2)cn(C)c1=O (centres unmarked) [Example 46, 6-(4-chlorophenyl)-2-cyclopropyl-5-(1,5-dimethyl-6-oxo-1,6-dihydropyridin-3-yl)-5,6-dihydropyrrolo[3,4-d]imidazol-4(3H)-one] | 78 nM | 84 nM | 77 nM | 2000 nM | 226 nM | 145 nM | 499 nM | 65.3 nM | 305 nM | >10000 nM | 108 nM

The next compounds have a lower IC50 (BRD4 (His-Brd4(44-477))) than those just listed; values first:

IC50 (BRD4 (His-Brd4(44-477))) | IC50 (BRD2 (His-Brd2(60-472))) | IC50 (BRD3 (His-Brd3(20-477))) | IC50 [1] | IC50 [2] | GI50 (THP-1 cells) | GI50 (K-562 cells) | GI50 (MV-4-11 cells) | SMILES | THP-1 TGI (THP-1 cells) | K-562 TGI (K-562 cells) | MV-4-11 TGI (MV-4-11 cells)
18 nM | 41 nM | 25 nM | 5700 nM | 110 nM | 90.9 nM | 330 nM | 48.5 nM | Cc1cc(N2C(=O)c3nc(C4=CCOC4)n(C(C)C)c3C2c2ccc(Cl)cc2)cn2c(C)nnc12 (centres unmarked) [Example 11, 6-(4-chlorophenyl)-2-(2,5-dihydrofuran-3-yl)-5-(3,8-dimethyl-[1,2,4]triazolo[4,3-a]pyridin-6-yl)-1-isopropyl-5,6-dihydropyrrolo[3,4-d]imidazol-4(1H)-one] | 202.5 nM | >10000 nM | 97.75 nM
20 nM | 43 nM | 21 nM | 8900 nM | 374 nM | 264 nM | 1040 nM | 42.2 nM | Cc1cc(N2C(=O)c3nc(C4=CCCN(C)C4)n(C(C)C)c3C2c2ccc(Cl)cc2)cn2c(C)nnc12 (centres unmarked) [Example 12, 6-(4-chlorophenyl)-5-(3,8-dimethyl-[1,2,4]triazolo[4,3-a]pyridin-6-yl)-1-isopropyl-2-(1-methyl-1,2,5,6-tetrahydropyridin-3-yl)-5,6-dihydropyrrolo[3,4-d]imidazol-4(1H)-one] | 715 nM | >10000 nM | 78.45 nM
16 nM | 33 nM | 15 nM | 2300 nM | 40.9 nM | 66 nM | 203 nM | 20.4 nM | Cc1cc(N2C(=O)c3nc(C4=CCOCC4)n(C(C)C)c3C2c2ccc(Cl)cc2)cn2c(C)nnc12 (centres unmarked) [Example 14, 6-(4-chlorophenyl)-2-(3,6-dihydro-2H-pyran-4-yl)-5-(3,8-dimethyl-[1,2,4]triazolo[4,3-a]pyridin-6-yl)-1-isopropyl-5,6-dihydropyrrolo[3,4-d]imidazol-4(1H)-one] | 120 nM | >10000 nM | 38.8 nM
16 nM | 15.5 nM | 17 nM | 430 nM | 7 nM | 13.8 nM | 45.2 nM | 6.72 nM | CCn1c(-c2cccnc2OC)nc2c1C(=O)N(c1cc(C)c(=O)n(C)c1)[C@@H]2c1ccc(Cl)cc1 [Example 41, (R)-6-(4-chlorophenyl)-5-(1,5-dimethyl-6-oxo-1,6-dihydropyridin-3-yl)-3-ethyl-2-(2-methoxypyridin-3-yl)-5,6-dihydropyrrolo[3,4-d]imidazol-4(3H)-one] | 30.6 nM | >10000 nM | 11 nM
16 nM | 17 nM | 17 nM | 1000 nM | 49.7 nM | 32.8 nM | 126 nM | 22.5 nM | COc1ncccc1-c1nc2c(n1C(C)C)C(=O)N(c1cc(C)c(=O)n(C)c1)[C@@H]2c1ccc(Cl)cc1 [Example 45, (R)-6-(4-chlorophenyl)-5-(1,5-dimethyl-6-oxo-1,6-dihydropyridin-3-yl)-3-isopropyl-2-(2-methoxypyridin-3-yl)-5,6-dihydropyrrolo[3,4-d]imidazol-4(3H)-one] | 60.5 nM | >10000 nM | 43.9 nM
